Drawing on patent publication US10669268B2, “Bicyclic derivatives” (Hoffmann-La Roche Inc., priority 2012, dated 2020), this text covers IC50 for 14 molecules.

For the assay, the target named is ATX (human His-tagged) (Homo sapiens (Human), UniProt Q13822). Description: Human ATX enzyme inhibition assay (fluorescence quenching, MR121 substrate). It is filed as biochemical. The conditions noted are these: 30 nM ATX, 1 μM MR121 substrate, 30° C., pH 8.0. In short, it runs like this:
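Fluorescence-quenching assay using MR121 substrate at 1 μM final, incubated 15 min at 30 °C. Buffer was 50 mM Tris-HCl pH 8.0 with 140 mM NaCl, 5 mM KCl, 1 mM CaCl2, 1 mM MgCl2 and 0.01% Triton X-100.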

Broadly, the IC50 is the midpoint of a concentration-inhibition curve. `O=C(/C=C/c1ccc(OC(F)(F)F)c(Cl)c1)N1C[C@H]2CCN(C(=O)c3ccc4[nH]nnc4c3)C[C@@H]2C1` [Example 15.75] came in with an IC50 of 0.005 µM.
For `O=C(/C=C/N1C[C@@H]2CN(C(=O)[C@@H]3CCc4[nH]nnc4C3)C[C@H]2C1)c1ccc(OC(F)(F)F)cc1` [Example 15.89] the value was 0.007 µM; for `O=C(OCc1cc(Cl)cc(Cl)c1)N1C[C@H]2CCN(C(=O)c3ccc4[nH]nnc4c3)C[C@@H]2C1` (relative stereo) [Example 12A, trans-3,5-dichlorobenzyl 5-(1H-benzo[d][1,2,3]triazole-5-carbonyl)-hexahydro-lH-pyrrolo[3,4-c]pyridine-2(3H)-carboxylate], 0.011 µM; for `O=C(OCc1cc(F)cc(OC(F)(F)F)c1)N1C[C@@H]2CN(C(=O)c3ccc4[nH]nnc4c3)C[C@@H]2C1` [Example 4.23, (3aS,6aR)-5-(1H-benzotriazole-5-carbonyl)-hexahydro-pyrrolo[3,4-c]pyrrole-2-carboxylic acid 3-fluoro-5-trifluoromethoxy-benzyl ester], 0.017 µM.
As for `COc1ccc(CCC(=O)N2CC[C@@H]3CN(C(=O)c4ccc5[nH]nnc5c4)C[C@@H]3CC2)cc1F` [Example 17.07, 1-((3aR,8aS)-2-(1H-benzo[d][1,2,3]triazole-5-carbonyl)octahydropyrrolo[3,4-d]azepin-6(7H)-yl)-3-(3-fluoro-4-methoxyphenyl)propan-1-one], the figure is 0.043 µM; as for `CN(Cc1cnn[nH]1)C(=O)N1C[C@H]2CN(C(=O)CCc3ccc(OC(F)(F)F)cc3)C[C@H]2C1` [Example 15.60], 1.04 µM.
For `O=C(OCc1cc(Cl)cc(Cl)c1)N1C[C@@H]2CN(C(=O)c3cc4c(cn3)[nH]c3ccccc34)C[C@@H]2C1` [Example 1.04, (3aR,6aS)-3,5-dichlorobenzyl 5-(9H-pyrido[3,4-b]indole-3-carbonyl)hexahydropyrrolo[3,4-c]pyrrole-2(1H)-carboxylate], the IC50 is 0.127 µM.
As for `O=C(OCc1cc(Cl)cc(Cl)c1)N1CC[C@H]2CN(C(=O)c3ccc4[nH]nnc4c3)C[C@H]2C1` [Example 10B, (3aS,7aR)-2-(1H-benzotriazole-5-carbonyl)-octahydro-pyrrolo[3,4-c]pyridine-5-carboxylic acid 3,5-dichloro-benzyl ester], the figure is 0.118 µM.
As for `O=C(OCc1ccc(C(F)(F)F)cc1F)N1C[C@@H]2CN(C(=O)c3ccc4[nH]nnc4c3)C[C@H]2C1` [Example 4.56, (3aS,6aS)-5-(1H-benzotriazole-5-carbonyl)-hexahydro-pyrrolo[3,4-c]pyrrole-2-carboxylic acid 2-fluoro-4-trifluoromethyl-benzyl ester], the figure is 0.009 µM; as for `O=C1N[C@@H]2CCN(C(=O)N3C[C@H]4CN(C(=O)/C=C/c5ccc(OC(F)(F)F)cc5)C[C@@H]4C3)C[C@H]2O1` [Example 15.54], 0.28 µM.
As for `O=C(CCc1cc(Cl)cc(C(F)(F)F)c1)N1CC[C@@H]2CN(C(=O)c3ccc4[nH]nnc4c3)C[C@@H]2CC1` [Example 17.17, 1-((3aR,8aS)-2-(1H-benzo[d][1,2,3]triazole-5-carbonyl)octahydropyrrolo[3,4-d]azepin-6(7H)-yl)-3-(3-chloro-5-(trifluoromethyl)phenyl)propan-1-one], the figure is 0.004 µM.
The molecule `O=C(/C=C/c1ccccc1C1CC1)N1CC[C@@H]2CN(C(=O)c3ccc4[nH]nnc4c3)C[C@@H]2CC1` [Example 1.29, (E)-1-((3aR,8aS)-2-(1H-benzo[d][1,2,3]triazole-5-carbonyl)octahydropyrrolo[3,4-d]azepin-6(7H)-yl)-3-(2-cyclopropylphenyl)prop-2-en-1-one] gave an IC50 of 0.008 µM.
For `O=C(CCc1ccc(-c2ccccc2)cc1)N1C[C@@H]2CN(C(=O)c3ccc4[nH]nnc4c3)C[C@H]2C1` [Example 15.65] the value was 0.003 µM.
For `O=C(OCc1cc(Cl)cc(Cl)c1)N1C[C@H]2CN(Cc3ccc4[nH]ncc4c3)C[C@H]2C1` [Example 6.02] the value was 2.81 µM.
